Read-outs that look alike come from different tables or passages of the source.
Molecular target: β-glucuronidase activity in live E. coli (4MUG to 4MU conversion) (Escherichia coli, UniProt P05804)
Test: Cell-based E. coli assay with 4MUG substrate, with and without esterase pre-treatment of prodrug
Settings: for IC50: live E. coli
Method: For esterase activation, the prodrug is treated with 5 mg/mL esterase for 30 mins at 37° C. to cleave the ester bonds yielding the glucuronide moiety. Following treatment, an inhibitor titration ranging from 10 uM to 10 pM is mixed and preincubated with live E. coli for 5 mins or 4 hours at 37° C. in a microplate with assay buffer (HEPES pH 7, NaCl). Chemically synthesized SY65-G is included as a positive control. Following preincubation, 4-methylumbelliferyl glucuronide (4MUG) is added at a final concentration of 100 uM to the cell and inhibitor mixture. The conversion of 4MUG to 4MU is detected via fluorescence (Ex./Em.: 360/460). […] The untreated prodrug is not active.

[1] = 5 min preincubation, no esterase treatment, read-out: Potency, pre-incubation time 5 min
[2] = 5 min preincubation, treated with 5 mg/mL esterase for 30 mins at 37° C., read-out: Potency, pre-incubation time 5 min, + Esterase
[3] = 4 hour preincubation, no esterase treatment, read-out: Potency, pre-incubation time 4 hour
[4] = 4 hour preincubation, treated with 5 mg/mL esterase for 30 mins at 37° C., read-out: Potency, pre-incubation time 4 hour, + Esterase

Sequence of β-glucuronidase activity in live E. coli (4MUG to 4MU conversion) (P05804 whole entry): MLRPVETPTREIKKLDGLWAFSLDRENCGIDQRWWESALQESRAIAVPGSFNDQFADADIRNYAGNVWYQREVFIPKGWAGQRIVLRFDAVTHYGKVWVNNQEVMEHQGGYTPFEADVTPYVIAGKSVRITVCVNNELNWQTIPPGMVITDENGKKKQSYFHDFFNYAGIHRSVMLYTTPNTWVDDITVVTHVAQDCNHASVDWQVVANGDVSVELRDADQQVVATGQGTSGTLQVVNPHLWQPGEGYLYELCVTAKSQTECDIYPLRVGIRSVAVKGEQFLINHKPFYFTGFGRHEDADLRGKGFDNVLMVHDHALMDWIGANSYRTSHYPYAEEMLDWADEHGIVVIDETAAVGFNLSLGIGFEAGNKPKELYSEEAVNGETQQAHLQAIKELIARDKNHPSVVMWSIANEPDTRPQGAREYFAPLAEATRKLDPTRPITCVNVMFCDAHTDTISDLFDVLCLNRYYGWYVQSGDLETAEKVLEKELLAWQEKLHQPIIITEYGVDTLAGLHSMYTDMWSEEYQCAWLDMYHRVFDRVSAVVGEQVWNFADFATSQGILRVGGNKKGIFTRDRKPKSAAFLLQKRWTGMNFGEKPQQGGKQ

Row | SMILES | IC50 [1] [nM] | IC50 [2] [nM] | IC50 [3] [nM] | IC50 [4] [nM] | Potency of esterase treated prodrug versus glucuronide positive control (esterase treated) | Activity of untreated prodrug in cell-based assay (without esterase treatment)
1 | Cc1cc(C)c2[nH]c(=O)c(CN(CCO[C@@H]3O[C@H](C(=O)O)[C@@H](O)[C@H](O)[C@H]3O)C(=O)Nc3ccccc3C(C)C)cc2c1 [SY65-G, (2S,3S,4S,5R,6R)-6-[2-[(6,8-dimethyl-2-oxo-1H-quinolin-3-yl)methyl-[(2-isopropylphenyl)carbamoyl]amino]ethoxy]-3,4,5-trihydroxy-tetrahydropyran-2-carboxylic acid] | 125 | 93 | 0.53 | 0.57 | – | –
2 | COC(=O)[C@H]1O[C@@H](OCCN(Cc2cc3cc(C)cc(C)c3[nH]c2=O)C(=O)Nc2ccccc2C(C)C)[C@H](OC(C)=O)[C@@H](OC(C)=O)[C@@H]1OC(C)=O [SY65-G-Ac, Methyl (2S,3S,4S,5R,6R)-3,4,5-triacetoxy-6-[2-[(6,8-dimethyl-2-oxo-1H-quinolin-3-yl)methyl-[(2-isopropylphenyl)carbamoyl]amino]ethoxy]tetrahydropyran-2-carboxylate] | > 10000 | 156 | > 10000 | 0.52 | just as potent as the glucuronide positive control | not active
